From the supplement of paper PMC10307832

Key:
Test in all cases: relative viability (nuclei count vs DMSO), 5 days (fraction); higher = more cells survive
[1] = compound: COC1=CC=C(C=C1)CN2C=CC3=C2C=C(C=C3)C(=O)NO + Nc1ncn([C@H]2C[C@H](O)[C@@H](CO)O2)c(=O)n1 [Decitabine] (partner 2 µM)
Method in brief: (§1)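 A single step with final 0.05% Triton X-100, 1% formaldehyde and 1 ug/ml Hoechst fixed the cells and stained nuclei 5 days after treatment. Lung cancer cell lines in 1536-well plates had been treated by pin tool the day after seeding with one drug alone or a fixed anchor-drug dose plus five library-drug doses (not always all listed) in √10 steps, and nuclei were counted on 4× images. Relative viability is the ratio of nuclei in treated wells to nuclei in vehicle wells, taken as the median of duplicate plates.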

[2] = compound: COC1=CC=C(C=C1)CN2C=CC3=C2C=C(C=C3)C(=O)NO + CC(C)C[C@H](NC(=O)[C@H](Cc1ccccc1)NC(=O)c1cnccn1)B(O)O [Bortezomib] (partner 0.002 µM)
Method in brief: as §1

Veliparib + Luminespib = compound: C[C@]1(c2nc3c(C(N)=O)cccc3[nH]2)CCCN1 [Veliparib] + CCNC(=O)c1noc(-c2cc(C(C)C)c(O)cc2O)c1-c1ccc(CN2CCOCC2)cc1 [Luminespib] (partner 0.01 µM)
Method in brief: as §1

Veliparib + Dasatinib = compound: C[C@]1(c2nc3c(C(N)=O)cccc3[nH]2)CCCN1 [Veliparib] + Cc1nc(Nc2ncc(C(=O)Nc3c(C)cccc3Cl)s2)cc(N2CCN(CCO)CC2)n1 [Dasatinib] (partner 0.075 µM)
Method in brief: as §1

Cell Line | relative viability ([1]; first compound 0.08 µM) | relative viability ([1]; first compound 0.253 µM) | relative viability ([1]; first compound 0.8 µM) | relative viability ([1]; first compound 2.53 µM) | relative viability ([1]; first compound 8 µM) | relative viability ([2]; first compound 0.08 µM) | relative viability ([2]; first compound 0.253 µM) | relative viability ([2]; first compound 0.8 µM) | relative viability ([2]; first compound 2.53 µM) | relative viability ([2]; first compound 8 µM) | relative viability (Veliparib + Luminespib; first compound 0.02 µM) | relative viability (Veliparib + Luminespib; first compound 0.06325 µM) | relative viability (Veliparib + Luminespib; first compound 0.2 µM) | relative viability (Veliparib + Luminespib; first compound 0.6325 µM) | relative viability (Veliparib + Luminespib; first compound 2 µM) | relative viability (Veliparib + Dasatinib; first compound 0.02 µM) | relative viability (Veliparib + Dasatinib; first compound 0.06325 µM) | relative viability (Veliparib + Dasatinib; first compound 0.2 µM) | relative viability (Veliparib + Dasatinib; first compound 0.6325 µM) | relative viability (Veliparib + Dasatinib; first compound 2 µM)
201T | 0.843 | 0.867 | 0.856 | 0.863 | 0.817 | 1.09 | 1.1 | 1.1 | 1.14 | 1.06 | 0.995 | 1.11 | 1.07 | 1.1 | 1.11 | 0.529 | 0.572 | 0.537 | 0.614 | 0.52
A549 | 0.187 | 0.264 | 0.286 | 0.235 | 0.374 |  |  |  |  |  |  |  |  |  |  |  |  |  |  | 
A-427 | 0.263 |  | 0.554 | 0.584 | 0.5 |  | 1.01 | 1.04 | 0.994 | 0.931 |  | 0.908 | 0.72 | 1.12 | 0.931 |  | 0.714 | 0.699 | 0.657 | 0.539
ABC-1 |  | 1.16 | 1.21 | 1.21 | 0.929 |  | 0.274 | 0.296 | 0.325 | 0.318 |  | 0.543 | 0.377 | 0.422 | 0.524 |  | 0.355 | 0.604 | 0.591 | 0.367
BEN | 0.677 | 0.726 | 0.702 | 0.664 | 0.618 | 0.675 | 0.671 | 0.906 | 0.754 | 0.656 | 0.161 | 0.188 | 0.308 | 0.557 | 0.148 | 0.232 | 0.292 | 0.377 | 0.361 | 0.266
CAL-12T |  |  |  |  |  | 0.987 |  | 1.06 | 1.06 | 0.862 | 0.348 | 0.147 | 0.522 | 0.266 | 0.155 | 0.287 | 0.354 | 0.386 | 0.308 | 0.468
COR-L23 | 0.378 | 0.465 | 0.456 | 0.407 | 0.357 | 0.93 | 0.996 | 1.08 | 1.03 | 0.922 | 0.696 | 0.523 | 0.558 | 0.538 | 0.433 | 0.428 | 0.434 | 0.361 | 0.425 | 0.471
COR-L 105 | 0.515 | 0.618 | 0.752 | 0.601 | 0.604 |  | 0.741 | 0.654 | 0.625 | 0.277 | 0.794 | 0.743 | 0.831 | 0.59 | 0.851 | 0.355 | 0.273 | 0.352 | 0.331 | 0.324
Calu-6 |  |  |  |  |  | 1.07 | 0.979 | 0.968 | 0.953 | 0.871 |  |  |  |  |  |  |  |  |  | 
ChaGo-K-1 |  | 0.502 | 0.526 | 0.525 | 0.488 |  | 0.752 | 0.962 | 0.942 | 0.868 | 0.44 | 0.655 | 0.648 | 0.525 | 0.596 | 0.336 | 0.615 | 0.566 | 0.624 | 0.584
EBC-1 |  |  |  |  |  | 0.574 | 0.496 | 0.532 | 0.54 | 0.44 |  |  |  |  |  |  |  |  |  | 
EKVX |  | 0.327 | 0.378 | 0.372 | 0.415 | 1.03 | 0.762 | 1.16 | 1.08 | 1.21 | 0.82 | 0.835 | 0.89 | 0.812 | 0.827 |  | 0.658 | 0.66 | 0.532 | 0.48
EMC-BAC-2 | 0.606 |  | 1.02 | 0.968 | 0.876 | 0.972 | 1.13 | 1.18 | 1.07 | 0.944 | 1.24 | 1.09 | 1.28 | 1.12 | 1.21 | 0.362 | 0.27 | 0.333 | 0.305 | 0.315
EPLC-272H |  | 0.407 | 0.385 | 0.457 | 0.378 | 0.925 | 0.953 | 1.16 | 0.861 | 0.855 | 0.264 | 0.526 | 0.485 | 0.0856 | 0.179 | 0.291 | 0.367 | 0.323 | 0.325 | 0.36
H3255 | 0.565 | 0.551 | 0.627 | 0.55 | 0.567 | 0.73 | 0.623 | 0.733 | 0.739 | 0.894 | 0.698 | 0.717 | 0.778 | 0.894 | 0.813 | 0.303 | 0.344 | 0.253 | 0.402 | 0.32
HARA |  | 0.493 | 0.6 | 0.587 | 0.534 | 0.536 | 1.22 | 1.15 | 1.12 | 1.13 | 0.82 | 0.778 | 0.782 | 0.639 | 0.416 | 0.254 | 0.383 | 0.294 | 0.231 | 0.267
HCC-15 | 0.529 | 0.718 | 0.742 | 0.714 | 0.642 | 0.854 | 1.09 | 1.13 | 1.02 | 0.998 | 0.302 | 0.314 | 0.252 | 0.191 | 0.334 |  | 0.524 | 0.629 | 0.603 | 0.582
